Test results from patent US20170080009A1, “Oligonucleotide Compositions and Methods for Treating Acute Lymphoblastic Leukemia” (priority 2014, published 2017).
Where two headings read alike, the source gives them in different places. Each block holds one molecule with its values, some of them ahead of it.

Experiments:
SUP-B15 cells = experiment: Cell viability assay, SUP-B15 cells; assay type: cell-based, human; settings: 72 hour exposure prior to viability
Molt-4 cells = experiment: Cell viability assay, Molt-4 cells; assay type: cell-based, human; settings: 72 hour exposure prior to viability
CCRF-CEM cells = experiment: Cell viability assay, CCRF-CEM cells; assay type: cell-based, human; settings: 72 hour exposure prior to viability
B6 ALL cells [1] = experiment: Cell viability assay, B6 ALL cells; assay type: cell-based, mouse
DG75 cells = experiment: Cell viability assay, DG75 cells; assay type: cell-based, human; settings: 72 hour exposure prior to viability
B6 ALL cells [2] = experiment: Syngeneic B6 ALL model in C57Bl/6 mice, survival; settings: 300 mg/kg tail vein QOD
Protocol: (§3) Committee approved all mouse experiments. Luciferase-tagged leukemia cells were transplanted into 6- to 8-wk-old C57Bl/6 or Balb/c recipient mice by tail-vein injection of 1×10^6 viable cells. Mice were monitored by bioluminescent imaging on day 6. Imaging was performed using an IVIS100 imaging system (Caliper LifeSciences, Hopkinton, Mass.). Mice were injected with 150 mg/kg D-Luciferin (Gold Biotechnology, St. Louis, Mo.), anesthetized with isoflurane, and imaged for 2 min. For the xenograft studies 6-8-wk old nude mice were subcutaneously injected with 2×10^6 cells mixed with 200 μl matrigel (BD Bioscience). Chemotherapy was initiated upon detection of clear signals or reproducibly palpable flank tumors. Mice were treated with 300 mg/kg FdUMP[10] by tail vein injection. Control animals were injected with PBS. Repeat luciferase imaging or tumor volume measurements were performed following treatment.
B) Survival of Balb/c mice injected with Baf-3 cells expressing the T315I variant of BCR-ABL treated with saline or F10 at 300 mg/kg QOD ×4 doses as indicated. […] D) Volumes of Jurkat tumors in nude mice treated with saline or F10 at 300 mg/kg QOD ×5 doses as indicated. […] F) Survival of all xenograft bearing mice from time of injection treated with saline or F10 at 300 mg/kg QOD ×5 doses as indicated. All p values were derived from log rank tests.
In this system Baf-3 cells were infected with an MSCV based virus that expressed the T315 variant of BCR-ABL seen in many cases of relapsed Philadelphia chromosome positive ALL^8. […] Nude mice were subcutaneously injected with 2×10^6 cells in matrigel and once a reproducibly palpable tumor was established were treated with F10 at 300 mg/kg or saline by tail vein injection QOD for 5 doses.

[3] = tested on: Ara-C resistant B6 ALL cells; experiment: C57Bl/6 mice injected with Ara-C resistant B6 ALL cells, survival; assay type: in vivo; settings: control median 12 days
Protocol: (§1) Committee approved all mouse experiments. […] Control animals were injected with PBS.
A) Cell viability assays.

[4] = tested on: panel of human and mouse ALL cell lines; settings: for IC50: 72 hours
Protocol: (§4) All human cell lines were maintained in RPMI media (Gibco, Carlsbad, Calif.) supplemented with 10% FBS, penicillin and streptomycin. Cells were grown at 37° C. with 5% CO2. Viability assays were done using the Cell Titer-Glo assay (Promega, Madison, Wis.) according to the manufacturer's protocol or by Trypan blue exclusion assay using the Countess cell counting system (Invitrogen, Carlsbad, Calif.). All murine cells were maintained in stem cell media (40% DMEM, 40% IMDM, 20% FBS, supplemented with murine SCF to 10 ng/ml, murine IL6 to 2 ng/ml, and murine IL3 to 0.4 ng/ml).
In order to assess the activity of F10 a panel of human and mouse ALL cell lines were exposed to a titration of F10, 5-FU, cytarabine or doxorubicin. After 72 hours viability was assessed and the IC50 values for each was determined.

[5] = tested on: Jurkat cells, a human T cell ALL line; experiment: Sensitivity of Jurkat cells to F10; assay type: cell-based
Description: One pathway that the inventors of the present invention believed could be exploited was the increased uptake of oligonucleotides by ALL cells. F10 is a poison deoxy-oligonucleotide that is a 10mer of the TS inhibitory 5-FU metabolite, 5-fluoro-2′-deoxyuridine-5′-O-monophosphate (FdUMP[10]) SEQ ID NO: 1. […] Activity of these targets is important for any replicating cell regardless of driving mutations. […] In this invention, the activity, toxicity and uptake of F10 in preclinical models of ALL was determined.

B6 ALL cells [6] = experiment: Annexin V / PI apoptosis assay, B6 ALL cells; assay type: cell-based, mouse
Protocol: (§2) Cells were seeded in 6-well μ[…] in 3 mls, grown for 2 days and treated with the indicated drug. After centrifugation and washing in cold PBS cells were stained with PI (Sigma Aldrich, St. Louis, Mo.) and APC-conjugated Annexin V in a binding buffer (0.1 M Hepes (pH 7.4), 1.4 M NaCl, and 25 mM CaCl2 solution) (BD Pharmingen, San Jose, Calif.) according to the manufacturer's protocol. Flow cytometric analysis was conducted on a Accuri flow cytometer (BD Biosciences). […] FIG. 1 A) Flow cytometry of Annexin V assay. […] B) Quantitation of non-apoptotic cells.

DG-75 tumors = experiment: DG75 xenograft in nude mice; settings: 300 mg/kg tail vein QOD for 5 doses
Protocol: as §3
(§5) B) Survival of Balb/c mice injected with Baf-3 cells expressing the T315I variant of BCR-ABL treated with saline or F10 at 300 mg/kg QOD ×4 doses as indicated. […] D) Volumes of Jurkat tumors in nude mice treated with saline or F10 at 300 mg/kg QOD ×5 doses as indicated. […] F) Survival of all xenograft bearing mice from time of injection treated with saline or F10 at 300 mg/kg QOD ×5 doses as indicated. All p values were derived from log rank tests. […]

[7] = tested on: SUP-B15, Jurkat, and DG75 human ALL cell lines in xenograft models; experiment: All xenograft bearing mice (SUP-B15, Jurkat, DG75), survival and eradication; settings: 300 mg/kg QOD for 5 doses
Protocol: as §3, §5

[8] = mouse, in vivo
SUP-B15 tumors = experiment: SUP-B15 xenograft in nude mice; settings: 300 mg/kg tail vein QOD for 5 doses
Protocol: as §3, §5

B6 ALL cells [9] = experiment: Engraftment of treated B6 ALL cells in syngeneic C57Bl/6 mice; assay type: in vivo, mouse; settings: cells treated with 50 nM F10 for 24 hours prior to injection
Description: B) Engraftment of human HSCs.

TS = target: T1, TS (Homo sapiens, UniProt P04818); experiment: TS catalytic activity in treated Jurkat cells; assay type: cell-based
T1 construct: Jurkat cells were exposed to 10 nM FdUMP[10] or 100 nM 5-FU for the indicated time, lysed and assayed for TS activity; endogenous in cells; host or cells: Jurkat
T1 sequence (P04818 whole entry): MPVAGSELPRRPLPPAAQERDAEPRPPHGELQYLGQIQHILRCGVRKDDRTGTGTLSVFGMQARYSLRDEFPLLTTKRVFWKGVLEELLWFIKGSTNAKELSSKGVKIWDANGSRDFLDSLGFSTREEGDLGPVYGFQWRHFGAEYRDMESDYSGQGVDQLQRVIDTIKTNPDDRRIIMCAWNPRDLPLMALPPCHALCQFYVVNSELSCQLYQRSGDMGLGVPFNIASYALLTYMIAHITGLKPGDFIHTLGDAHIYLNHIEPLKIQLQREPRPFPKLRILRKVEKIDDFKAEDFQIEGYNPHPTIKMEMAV
Protocol: Cells were plated at 1.5×10^6 cells in 100 mm2 plates and grown overnight in RPMI 1640 medium with 20% FBS. Cells were exposed to the indicated drug for 8, 16, 24, or 48 hours. Cells were then harvested in 25 mM Tris-HCl, pH 7.4 with Complete Protease Inhibitor Cocktail (Roche), put through 2 freeze/thaw cycles, and vortexed. The lysates were centrifuged at 10,000×g for 10 minutes at 4° C. TS assays were performed in a final volume of 200 μl containing 75 μM 5,10 methylene tetrahydrofolate in 0.5 M NaOH (Schircks Laboratories, Switzerland), 10 μM dUMP, 200,000 dpm of 3H-dUMP (Moravek Biochemicals), 100 μM 2-mercaptoethanol, and 25 mM KH2PO4, pH 7.4. Cell lysate (400 μg of protein) was added to the reaction buffer. Reactions were incubated at 37° C. for 30 minutes and stopped by addition of 100 μl of 20% TCA, incubated for 5 minutes on ice. 200 μL of activated charcoal solution (10 g activated charcoal, 0.25 g BSA, 0.25 g dextran sulfate, in 100 ml of water) was added, vortexed and maintained at room temperature for 10 minutes. Reactions were centrifuged at 10,000×g for 30 minutes. 200 μL aliquots of the supernatant were read by scintillation counting. All reactions were repeated a minimum of three times.
(A) TS inhibition assay. Jurkat cells were exposed to 10 nM FdUMP[10] or 100 nM 5-FU for the indicated time, lysed and assayed for TS activity. Activity is plotted as percentage of control. […]

[10] = Toxicology study in normal Balb/c mice (histopathology of bone marrow and GI tract)
Protocol: Normal Balb/c mice were treated with identical dose, schedule and route of each drug as in the efficacy studies (i.e. Day 1, 3, 5 and 7). 72 hours after the last dose, animals were sacrificed, bilateral femoral cells harvested and organs fixed in 10% neutral buffered formalin followed by routine tissue processing and sectioning for hematoxylin and eosin staining. Slides were then reviewed by a veterinary pathologist using a Nikon Eclipse 50i light microscope. Photographs of tissues were taken using the NIS Elements D3.10 camera and software system.
Animals were sacrificed 72 hours following their last dose. BM=bone marrow, LI=large intestine, SI=small intestine.
The 5-FU dose was chosen as it delivers the exact same amount of fluoropyrimidine as the F10 dosed at 300 mg/kg. GI tract and bone marrow slides were analyzed by a veterinary pathologist blinded to treatment.

SUP-B15 ALL cells = experiment: Annexin V / PI apoptosis assay, SUP-B15 cells; assay type: cell-based, human
Protocol: as §2

[11] = tested on: Baf-3 cells expressing the T315I variant of BCR-ABL; experiment: Syngeneic Baf-3 BCR-ABL T315I model in Balb/c mice, survival; assay type: in vivo; settings: 300 mg/kg tail vein QOD x4 doses; p=0.0013
Protocol: as §1

Jurkat tumors = experiment: Jurkat xenograft in nude mice; settings: 300 mg/kg tail vein QOD for 5 doses
Protocol: as §3, §5

[12] = tested on: Ara-C resistant B6 ALL cells; experiment: Cell viability assay, Ara-C resistant B6 ALL lines; settings: Mus musculus, 72 h, read-out: average IC50 of cytarabine, relapsed (resistant) cells
Protocol: as §4
When the mice were moribund bilateral femur cells from 4 separate animals were harvested and they were placed in culture.

[13] = Mus musculus, 72 hour exposure prior to viability, read-out: IC50 B6 ALL
[14] = F10 300 mg/kg QOD x4, sacrificed 72 hours after last dose
[15] = 72 hour exposure prior to viability, read-out: IC50 B6 ALL
[16] = 5-FU 121 mg/kg QOD x4, sacrificed 72 hours after last dose

IC50 (Molt-4 cells; Homo sapiens, MOLT-4): 19.5 nM | IC50 (CCRF-CEM cells; Homo sapiens, CCRF-CEM): 36.3 nM
Molecule: COc1cccc2c1C(=O)c1c(O)c3c(c(O)c1C2=O)C[C@@](O)(C(=O)CO)C[C@@H]3O[C@H]1C[C@H](N)[C@H](O)[C@H](C)O1 [Doxorubicin]
IC50 (SUP-B15 cells; Homo sapiens, SUP-B15): 19.4 nM | IC50 (B6 ALL cells [1]; [13]): 4.84 nM | IC50 (DG75 cells; Homo sapiens, DG-75): 150 nM

Molecule: FdUMP[10] [F10]
median OS (B6 ALL cells [2]; 4 treatments, control 15 days, p<0.0001): 18 days | median OS (B6 ALL cells [2]; 6 treatments, p=0.0009): 24 days | median OS (B6 ALL cells [2]; 9 treatments, p=0.0001): 30 days | median survival ([3]; F10 300 mg/kg QOD): 31 days | IC50 (SUP-B15 cells): 0.21 nM | potency relative to 5-FU [4]: more than 1000 times | IC50 ([4]; read-out: average IC50 value for all cell lines, average over all cell lines): 1.48 nM | IC50 ([4]; read-out: range of IC50 values over all cell lines, range over cell lines): 0.07 to 5.4 nM | sensitivity of Jurkat cells [5]: low nanomolar sensitivity | induction of apoptosis (Annexin V and PI positive cells) (B6 ALL cells [6]; 1 nM F10, 72 hour exposure): robust induction of Annexin V and PI positive cells | tumor volume response (DG-75 tumors): tumor regression | tumor eradication ([7]; in several cases): complete eradication of the tumor | survival of all xenograft bearing mice vs saline ([7]; p=0.0098): significant survival advantage | body weight of leukemic mice [8]: protected the mice from leukemia induced weight loss | IC50 (Molt-4 cells): 1.88 nM | tumor volume response (SUP-B15 tumors): tumor regression | engraftment of B6 ALL cells (bioluminescence) (B6 ALL cells [9]): significantly reduced engraftment | TS inhibition (activity as percentage of control) (TS; 10 nM F10, 8-48 hours): profound and prolonged TS inhibition | GI tract toxicity (histopathology) [10, 14]: only a mild increase in apoptotic cells | bone marrow toxicity (histopathology) [10, 14]: only minimal marrow toxicity | IC50 (CCRF-CEM cells): 1.14 nM | IC50 (B6 ALL cells [1]; [15]): 0.07 nM | induction of apoptosis (Annexin V and PI positive cells) (SUP-B15 ALL cells; 1 nM F10, 72 hour exposure): robust induction of Annexin V and PI positive cells | survival vs saline [11]: significant prolongation of survival | tumor volume response (Jurkat tumors): tumor regression | IC50 (DG75 cells): 4.12 nM

Molecule: O=c1[nH]cc(F)c(=O)[nH]1 [5-FU, reference compound]
IC50 (SUP-B15 cells): 425 nM | induction of apoptosis (non-apoptotic cells vs controls) (B6 ALL cells [6]; 100 nM 5-FU, 72 hours): not significantly different from controls | IC50 (Molt-4 cells): 4960 nM | TS inhibition (activity as percentage of control) (TS; 100 nM 5-FU, compared with 10 nM F10): could not be achieved by 5-FU | GI tract toxicity (histopathology) [10, 16]: abundant tissue damage and immune cell infiltration | bone marrow toxicity (histopathology) [10, 16]: pancytopenic and hemorrhagic marrow | IC50 (CCRF-CEM cells): > 50000 nM | IC50 (B6 ALL cells [1]; [15]): 799 nM | induction of apoptosis (non-apoptotic cells vs controls) (SUP-B15 ALL cells; 100 nM 5-FU, 72 hours): not significantly different from controls | IC50 (DG75 cells): 14000 nM

Molecule: Nc1ccn([C@@H]2O[C@H](CO)[C@@H](O)[C@@H]2O)c(=O)n1 [Cytarabine]
IC50 [12]: 23 nM | survival compared with control ([3]; cytarabine 100 mg/kg QOD): lived only a day longer | IC50 (Molt-4 cells; Homo sapiens, MOLT-4): 10.6 nM | IC50 (CCRF-CEM cells; Homo sapiens, CCRF-CEM): 8.32 nM | IC50 (B6 ALL cells [1]; [13]): 11.9 nM | IC50 (B6 ALL cells [1]; Mus musculus, parental B6 ALL, 72 hours, read-out: IC50 of cytarabine, parental cell line): 11 nM | IC50 (DG75 cells; Homo sapiens, DG-75): 64.3 nM
